Measured values reported in PubChem BioAssay (NCI).
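In this assay, cells in 96-well plates receive the compound at five concentrations for 48 hours. Endpoints are linearly interpolated between the surrounding concentrations. The concentration for 50% growth inhibition is given as GI50. TGI marks complete inhibition of growth.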

Experiments:
Assay in all cases: inhibition of tumour cell growth, NCI panel, 48 h
[1] = test system: HCT-15 colon
[2] = test system: HS 578T breast
[3] = test system: KM12 colon
[4] = test system: OVCAR-5 ovarian
[5] = test system: SF-539 CNS
[6] = test system: SK-MEL-2 melanoma
[7] = test system: TK-10 renal
[8] = test system: UACC-257 melanoma

For `c1cncc(CNCc2cccnc2)c1`, the TGI [1] was > 100 µM, the TGI [2] was > 100 µM and the TGI [3] was > 100 µM. For the same molecule, the TGI [4] was > 100 µM, the TGI [5] was > 100 µM and the TGI [6] was > 100 µM. The TGI [7] was > 100 µM and the TGI [8] was > 100 µM.
`C1CC2CN(CCCN3CCOCC3)C(C1)O2` (stereo not given) was tested, and the TGI [1] was > 100 µM, the TGI [2] was > 100 µM and the TGI [3] was > 100 µM. The TGI [4] was > 100 µM, the TGI [5] was > 100 µM and the TGI [6] was > 100 µM. For the same molecule, the TGI [7] was > 100 µM and the TGI [8] was > 100 µM.
`O=c1cc(N/N=C/c2ccc(F)cc2)c2cc(Cl)ccc2[nH]1` was tested, and the GI50 [1] was 19.9 µM, the TGI [1] was > 100 µM and the GI50 [2] was 25.3 µM. For the same molecule, the TGI [2] was > 100 µM, the GI50 [3] was 22 µM and the TGI [3] was > 100 µM. For the same molecule, the GI50 [4] was 21.6 µM, the TGI [4] was 58.9 µM and the GI50 [5] was 23.6 µM. The TGI [5] was 78.2 µM, the GI50 [6] was 18.3 µM and the TGI [6] was 69.3 µM. The GI50 [7] was 47.1 µM, the TGI [7] was > 100 µM and the GI50 [8] was 15.5 µM. For the same molecule, the TGI [8] was 56.5 µM.
With `COc1cc2c(cc1O)CC1c3c(cc(O)c(OC)c3-2)CCN1C` (stereo not given) the TGI [1] was > 100 µM, the TGI [2] was > 100 µM and the TGI [3] was > 100 µM. For the same molecule, the TGI [4] was > 100 µM, the TGI [5] was > 100 µM and the TGI [6] was > 100 µM. For the same molecule, the TGI [7] was > 100 µM and the TGI [8] was > 100 µM.
With `Cc1nn2c(/C=C3/C(=O)Nc4cc(Cl)ccc43)c(-c3ccccc3)nc2s1` the GI50 [1] was 4.79 µM, the TGI [1] was > 100 µM and the GI50 [2] was 3.52 µM. The TGI [2] was > 100 µM, the GI50 [3] was 59.1 µM and the TGI [3] was > 100 µM. For the same molecule, the GI50 [4] was > 100 µM, the TGI [4] was > 100 µM and the GI50 [5] was 1.71 µM. The TGI [5] was 3.46 µM, the GI50 [6] was 7.07 µM and the TGI [6] was 46.7 µM. It also gave a GI50 [7] of 2.34 µM, a TGI [7] of 4.14 µM and a GI50 [8] of 2.65 µM. The TGI [8] was 8.32 µM.
`O=C(c1ccccc1)c1c(NCC(O)CN2CCOCC2)n(Cc2ccccc2)c(=O)n(Cc2ccccc2)c1=O` (stereo not given) was tested, and the GI50 [1] was 34.4 µM, the TGI [1] was > 100 µM and the GI50 [2] was 55 µM. The TGI [2] was > 100 µM, the GI50 [3] was 40.4 µM and the TGI [3] was > 100 µM. The GI50 [4] was 5.53 µM, the TGI [4] was > 78.7 µM and the GI50 [5] was > 68 µM. For the same molecule, the TGI [5] was > 100 µM, the GI50 [6] was > 66.4 µM and the TGI [6] was > 100 µM. The GI50 [7] was 30.2 µM, the TGI [7] was > 100 µM and the GI50 [8] was 55.8 µM. The TGI [8] was > 100 µM.
`CCCCCC[C@H](C)Nc1nc2ccccc2c2occc12` was tested, and the GI50 [1] was 10.1 µM, the TGI [1] was 22 µM and the GI50 [2] was 12.8 µM. For the same molecule, the TGI [2] was 37.7 µM, the GI50 [3] was 10.6 µM and the TGI [3] was 32.3 µM. The GI50 [4] was 5.54 µM, the TGI [4] was 20.3 µM and the GI50 [5] was 4.16 µM. The TGI [5] was 15.2 µM, the GI50 [6] was 14.8 µM and the TGI [6] was 32.6 µM. It also gave a GI50 [7] of 6.46 µM, a TGI [7] of 20.9 µM and a GI50 [8] of 3.24 µM. The TGI [8] was 16.3 µM.
`C1CC[N-]CC1.CC(=N\O)/C(C)=N/O.CC(=N\O)/C(C)=N/O.OC1[CH-]CCCC1.[Co+2]` was tested, and the GI50 [1] was 65.5 µM, the TGI [1] was > 100 µM and the GI50 [2] was 22.8 µM. The TGI [2] was 63 µM, the GI50 [3] was > 100 µM and the TGI [3] was > 100 µM. For the same molecule, the GI50 [4] was > 100 µM, the TGI [4] was > 100 µM and the GI50 [5] was 25.5 µM. The TGI [5] was 71.1 µM, the GI50 [6] was 23.9 µM and the TGI [6] was 59.7 µM. For the same molecule, the GI50 [7] was 39.8 µM, the TGI [7] was > 100 µM and the GI50 [8] was 29.5 µM. For the same molecule, the TGI [8] was > 100 µM.
Work on `C=CC(=O)Nc1cc(N2CCN(CC)CC2)ccc1Nc1cc(N(C)C(=O)Nc2c(Cl)c(OC)cc(OC)c2Cl)ncn1` yielded a GI50 [1] of 6.25 µM, a TGI [1] of 21.3 µM and a GI50 [2] of 4.77 µM. It also gave a TGI [2] of 40.8 µM, a GI50 [3] of 3.09 µM and a TGI [3] of 10.3 µM. It also gave a GI50 [4] of 19.4 µM, a TGI [4] of 51.2 µM and a GI50 [5] of 3.53 µM. The TGI [5] was 15.2 µM, the GI50 [6] was 13 µM and the TGI [6] was 27.3 µM. It also gave a GI50 [7] of 10.6 µM, a TGI [7] of 26 µM and a GI50 [8] of 13.5 µM. The TGI [8] was 30.1 µM.
